Experimental data as given in US11369111B2, “Synergistic composition of nematicide comprising of chalcones” (priority 2017, dated 2022).

Columns and labels:
cucumber crop = assay: Effect on growth of cucumber plants in a poly house; type: in vivo
[1] = test system: root knot nematodes in soil; assay: Effect on root knot nematodes in soil; type: in vivo, Meloidogyne
root-knot nematodes = assay: Gall formation in roots of infected cucumber plants (root gall index); type: in vivo
Caenorhabditis elegans = conditions: 10^−4 M, laboratory conditions, individually; cited from earlier work
E. coli (Gram negative) = assay: Effect of chalcones on common microorganisms (CFU on nutrient agar plates); type: cell-based, Escherichia coli; conditions: for Effect on microorganism (Colony Forming Units): 24-48 hours
Method: (§1) Two common soil microorganisms (Pseudomonas aeruginosa and Bacillus subtilis) and two common laboratory microorganisms (Escherichia coli, and Saccharomyces cerevisiae) were tested for the effects of individual chalcones. Microorganisms were grown on nutrient agar plates containing 10^−4, 10^−5, or 10^−6 M concentrations of chalcones and Colony Forming Units (CFU) were counted after 24-48 hours of growth in nutrient agar plates.

[2] = test system: B. subtilis (Gram positive); assay: as above; type: cell-based, Bacillus subtilis; conditions: for Effect on microorganism (Colony Forming Units): 24-48 hours
Method: as §1

[3] = test system: P. aeruginosa (Gram negative); assay: as above; type: cell-based, Pseudomonas aeruginosa; conditions: for Effect on microorganism (Colony Forming Units): 24-48 hours
Method: as §1

S. cerevisiae = assay: as above; type: cell-based, Saccharomyces cerevisiae; conditions: for Effect on microorganism (Colony Forming Units): 24-48 hours
Method: as §1

CNC(=O)Oc1cccc2c1OC(C)(C)C2 [Carbofuran]
increase in shoot length compared to untreated plants (cucumber crop; Day 10 (FIG. 3)): did not show similar positive effect
increase in leaf length compared to untreated plants (cucumber crop; Day 10 (FIG. 6)): did not show similar positive effect
increase in number of flowers compared to untreated plants (cucumber crop; Day 10 (FIG. 9)): did not show similar positive effect
increase in shoot length compared to untreated plants (cucumber crop; Day 21 (FIG. 4)): did not have similar positive effect
increase in leaf length compared to untreated plants (cucumber crop; Day 21 (FIG. 7)): did not show similar positive effect
increase in number of flowers compared to untreated plants (cucumber crop; Day 21 (FIG. 10)): did not show similar positive effect
increase in number of fruits compared to untreated plants (cucumber crop; Day 21 (FIG. 12)): did not show similar positive effect
increase in number of fruits compared to untreated plants (cucumber crop; Day 21 (FIG. 13)): did not show similar positive effect
increase in number of fruits compared to untreated plants (cucumber crop; Day 21 (FIG. 14)): did not show similar positive effect
increase in shoot length compared to untreated plants (cucumber crop; Day 35 (FIG. 5)): did not show similar positive effect
increase in leaf length compared to untreated plants (cucumber crop; Day 35 (FIG. 8)): did not show similar positive effect
increase in number of flowers compared to untreated plants (cucumber crop; Day 35 (FIG. 11)): did not show similar positive effect
Percentage Change compared to untreated, Average Leaf length (cucumber crop; after 28 days of treatment): 6%
Percentage Change compared to untreated, Average Shoot length (cucumber crop; after 28 days of treatment): 3%
Percentage Change compared to untreated, Average number of flowers (cucumber crop; after 28 days of treatment): −9%
Percentage Change compared to untreated, Average number of fruits (cucumber crop; after 28 days of treatment): 50%
effect on nematodes in the soil ([1]; after 14 days, even at higher dosages): did not show any significant effect
efficacy in killing and maintaining a small number of nematodes in soil ([1]; after 19 days of treatment (FIG. 17-19)): do not have the same positive effect
Root gall index (Day 1) (root-knot nematodes; Day 1): 1
Root gall index (Day 25 of treatment) (root-knot nematodes; Day 25 of treatment): 2 (2=1-25%)
Root gall index (Day 45-20 days after second treatment) (root-knot nematodes; Day 45, 20 days after second treatment): 4 (4=51-75%)

O=C(/C=C/c1ccccc1)c1ccc(Cl)cc1Cl [Chalcone 17, (2E)-1-(2,4-Dichlorophenyl)-3-phenyl-2-propen-1-one]
nematicidal activity (Caenorhabditis elegans): shown nematicidal activity
Effect on microorganism (Colony Forming Units) (E. coli (Gram negative); 10^−4 M): 115.4
Effect on microorganism (Colony Forming Units) (E. coli (Gram negative); 10^−5 M): 131.3
Effect on microorganism (Colony Forming Units) (E. coli (Gram negative); 10^−6 M): 97.3
effect on growth of microorganism [2]: limit the growth
Effect on microorganism (Colony Forming Units) ([2]; 10^−4 M): 69.0
Effect on microorganism (Colony Forming Units) ([2]; 10^−5 M): 51.4
Effect on microorganism (Colony Forming Units) ([2]; 10^−6 M): 50.8
effect on growth of microorganism [3]: limit the growth
Effect on microorganism (Colony Forming Units) ([3]; 10^−4 M): 55.8
Effect on microorganism (Colony Forming Units) ([3]; 10^−5 M): 53.9
Effect on microorganism (Colony Forming Units) ([3]; 10^−6 M): 56.0
Effect on microorganism (Colony Forming Units) (S. cerevisiae; 10^−4 M): 97.0
Effect on microorganism (Colony Forming Units) (S. cerevisiae; 10^−5 M): 82.8
Effect on microorganism (Colony Forming Units) (S. cerevisiae; 10^−6 M): 106.7

CCOc1ccc(C(=O)/C=C/c2ccccc2)cc1 [Chalcone 25, (2E)-1-(4-Ethoxyphenyl)-3-phenyl-2-propen-1-one]
nematicidal activity (Caenorhabditis elegans): shown nematicidal activity
effect on growth of microorganism (E. coli (Gram negative)): does not affect the growth
Effect on microorganism (Colony Forming Units) (E. coli (Gram negative); 10^−4 M): 52.3
Effect on microorganism (Colony Forming Units) (E. coli (Gram negative); 10^−5 M): 69.6
Effect on microorganism (Colony Forming Units) (E. coli (Gram negative); 10^−6 M): 103.3
effect on growth of microorganism [2]: limit the growth
Effect on microorganism (Colony Forming Units) ([2]; 10^−4 M): 55.1
Effect on microorganism (Colony Forming Units) ([2]; 10^−5 M): 55.9
Effect on microorganism (Colony Forming Units) ([2]; 10^−6 M): 83.6
effect on growth of microorganism [3]: promote the growth
Effect on microorganism (Colony Forming Units) ([3]; 10^−4 M): 148.8
Effect on microorganism (Colony Forming Units) ([3]; 10^−5 M): 148.1
Effect on microorganism (Colony Forming Units) ([3]; 10^−6 M): 141.2
effect on growth of microorganism (S. cerevisiae): does not affect the growth
Effect on microorganism (Colony Forming Units) (S. cerevisiae; 10^−4 M): 97.8
Effect on microorganism (Colony Forming Units) (S. cerevisiae; 10^−5 M): 125.4
Effect on microorganism (Colony Forming Units) (S. cerevisiae; 10^−6 M): 90.3

O=C(/C=C/c1ccccc1)c1cccs1 [Chalcone 30, (2E)-3-Phenyl-1-(2-thienyl)-2-propen-1-one]
nematicidal activity (Caenorhabditis elegans): shown nematicidal activity
